Experimental data published in ChEMBL document CHEMBL5331139, “First-in-Class Dual Targeting Compounds for the Management of Seizures in Glucose Transporter Type 1 Deficiency Syndrome” (J Med Chem, 2023).

Tests used:
[1] = target: Carbonic anhydrase 5B, mitochondrial (Homo sapiens, UniProt Q9Y2D0)
Description: Binding affinity to human recombinant carbonic anhydrase 5B assessed as inhibition constant incubated for 15 mins by phenol red based stopped-flow CO2 hydration assay

[2] = in vivo; conditions: C57BL/6, mouse, 200 mg/kg
Description: Toxicity in MES induced C57BL/6 mouse model assessed as mortality at 200 mg/kg

[3] = target: Carbonic anhydrase 7 (Homo sapiens, UniProt P43166)
Description: Binding affinity to human recombinant carbonic anhydrase 7 assessed as inhibition constant incubated for 15 mins by phenol red based stopped-flow CO2 hydration assay

[4] = target: Carbonic anhydrase 2 (Homo sapiens, UniProt P00918)
Description: Binding affinity to human recombinant carbonic anhydrase 2 assessed as inhibition constant incubated for 15 mins by phenol red based stopped-flow CO2 hydration assay

[5] = target: Carbonic anhydrase 12 (Homo sapiens, UniProt O43570)
Description: Binding affinity to human recombinant carbonic anhydrase 12 assessed as inhibition constant incubated for 15 mins by phenol red based stopped-flow CO2 hydration assay

[6] = target: Carbonic anhydrase 5A, mitochondrial (Homo sapiens, UniProt P35218)
Description: Binding affinity to human recombinant carbonic anhydrase 5A assessed as inhibition constant incubated for 15 mins by phenol red based stopped-flow CO2 hydration assay

[7] = target: Carbonic anhydrase 1 (Homo sapiens, UniProt P00915)
Description: Binding affinity to human recombinant carbonic anhydrase 1 assessed as inhibition constant incubated for 15 mins by phenol red based stopped-flow CO2 hydration assay

[8] = target: Carbonic anhydrase 4 (Homo sapiens, UniProt P22748)
Description: Binding affinity to human recombinant carbonic anhydrase 4 assessed as inhibition constant incubated for 15 mins by phenol red based stopped-flow CO2 hydration assay

[9] = in vivo; conditions: C57BL/6, mouse, 300 mg/kg
Description: Toxicity in MES induced C57BL/6 mouse model assessed as animal death at 300 mg/kg

Chain of Carbonic anhydrase 7 (P43166 whole entry): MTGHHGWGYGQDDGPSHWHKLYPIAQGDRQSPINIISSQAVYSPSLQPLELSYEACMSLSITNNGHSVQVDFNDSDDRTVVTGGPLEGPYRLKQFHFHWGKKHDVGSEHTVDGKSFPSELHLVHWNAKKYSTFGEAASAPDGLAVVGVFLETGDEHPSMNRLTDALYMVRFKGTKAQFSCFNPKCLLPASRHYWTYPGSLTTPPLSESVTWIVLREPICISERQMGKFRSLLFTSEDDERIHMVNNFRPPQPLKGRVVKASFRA
Chain of Carbonic anhydrase 12 (O43570 whole entry): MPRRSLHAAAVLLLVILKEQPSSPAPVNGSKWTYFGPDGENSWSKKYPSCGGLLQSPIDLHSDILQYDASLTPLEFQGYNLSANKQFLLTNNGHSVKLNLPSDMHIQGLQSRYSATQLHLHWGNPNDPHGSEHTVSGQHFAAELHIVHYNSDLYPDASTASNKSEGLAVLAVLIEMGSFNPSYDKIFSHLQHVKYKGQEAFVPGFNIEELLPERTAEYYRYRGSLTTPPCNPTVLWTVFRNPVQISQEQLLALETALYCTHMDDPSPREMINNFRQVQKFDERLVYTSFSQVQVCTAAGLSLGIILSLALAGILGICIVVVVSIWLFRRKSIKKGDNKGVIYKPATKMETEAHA
Chain of Carbonic anhydrase 5A, mitochondrial (P35218 whole entry): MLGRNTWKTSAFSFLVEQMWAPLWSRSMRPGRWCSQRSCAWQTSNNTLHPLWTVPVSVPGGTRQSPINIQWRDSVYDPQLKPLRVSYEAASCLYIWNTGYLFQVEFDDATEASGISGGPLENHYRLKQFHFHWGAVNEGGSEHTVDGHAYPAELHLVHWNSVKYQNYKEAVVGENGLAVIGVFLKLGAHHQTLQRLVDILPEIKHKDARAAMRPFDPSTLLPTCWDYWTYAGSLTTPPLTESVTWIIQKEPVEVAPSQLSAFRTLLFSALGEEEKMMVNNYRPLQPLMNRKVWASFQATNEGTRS
Chain of Carbonic anhydrase 5B, mitochondrial (Q9Y2D0 whole entry): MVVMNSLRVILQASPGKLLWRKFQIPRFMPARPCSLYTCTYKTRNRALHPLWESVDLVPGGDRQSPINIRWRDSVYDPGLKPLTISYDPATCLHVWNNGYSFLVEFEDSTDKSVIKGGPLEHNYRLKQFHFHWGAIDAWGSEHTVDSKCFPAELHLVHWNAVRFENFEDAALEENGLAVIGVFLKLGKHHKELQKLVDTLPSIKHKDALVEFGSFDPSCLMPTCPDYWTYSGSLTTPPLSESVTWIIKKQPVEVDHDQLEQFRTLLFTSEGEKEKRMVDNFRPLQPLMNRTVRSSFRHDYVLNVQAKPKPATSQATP
Chain of Carbonic anhydrase 1 (P00915 whole entry): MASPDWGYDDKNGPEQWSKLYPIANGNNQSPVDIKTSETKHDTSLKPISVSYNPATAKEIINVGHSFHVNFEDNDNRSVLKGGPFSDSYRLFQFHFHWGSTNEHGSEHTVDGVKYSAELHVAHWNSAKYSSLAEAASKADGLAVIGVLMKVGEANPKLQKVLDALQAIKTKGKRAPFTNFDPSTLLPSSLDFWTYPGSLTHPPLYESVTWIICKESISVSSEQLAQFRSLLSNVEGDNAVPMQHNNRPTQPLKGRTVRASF
Chain of Carbonic anhydrase 4 (P22748 whole entry): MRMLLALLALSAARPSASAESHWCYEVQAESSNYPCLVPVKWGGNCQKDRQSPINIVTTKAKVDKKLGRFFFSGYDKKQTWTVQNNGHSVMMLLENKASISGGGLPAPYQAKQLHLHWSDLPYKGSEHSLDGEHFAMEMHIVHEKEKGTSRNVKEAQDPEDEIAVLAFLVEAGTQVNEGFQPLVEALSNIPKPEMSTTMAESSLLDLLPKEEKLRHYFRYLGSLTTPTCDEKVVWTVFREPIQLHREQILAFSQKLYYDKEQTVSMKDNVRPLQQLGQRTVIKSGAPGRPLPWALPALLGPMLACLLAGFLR

## NS(=O)(=O)c1ccc(NC(=S)Nc2ccc([Se][C@@H]3O[C@H](CO)C(O)[C@H](O)[C@H]3O)cc2)cc1 (single isomer, unassigned; 16a)
[1]
  Ki: 7.6 nM
[2]
  mortality: 30%
[3]
  Ki: 4.4 nM
[4]
  Ki: 5.2 nM
[5]
  Ki: 19.8 nM
[6]
  Ki: 70.5 nM
[7]
  Ki: 71.4 nM
[8]
  Ki: 283 nM

## NS(=O)(=O)c1ccc(C(=O)Nc2ccc([Se][C@@H]3O[C@H](CO)[C@H](O)[C@H](O)[C@H]3O)cc2)cc1
[1]
  Ki: 88 nM
[3]
  Ki: 9.6 nM
[4]
  Ki: 1.7 nM
[5]
  Ki: 90.5 nM
[6]
  Ki: 120 nM
[7]
  Ki: 48 nM
[8]
  Ki: 348 nM

## CC(=O)O[C@@H]1[C@@H](OC(C)=O)[C@H]([Se]c2ccc(S(N)(=O)=O)cc2)O[C@H](CO)[C@H]1OC(C)=O
[1]
  Ki: 5.5 nM
[3]
  Ki: 4.1 nM
[4]
  Ki: 3.7 nM
[5]
  Ki: 5.9 nM
[6]
  Ki: 736 nM
[7]
  Ki: 78.4 nM
[8]
  Ki: 67.1 nM

## CC(=O)OC[C@H]1O[C@@H]([Se]c2ccc(S(N)(=O)=O)cc2)[C@H](OC(C)=O)[C@@H](OC(C)=O)[C@H]1OC(C)=O
[1]
  Ki: 6.6 nM
[3]
  Ki: 0.5 nM
[4]
  Ki: 4.1 nM
[5]
  Ki: 804 nM
[6]
  Ki: 87.2 nM
[7]
  Ki: 95.8 nM
[8]
  Ki: 344 nM

## Nc1cc([Se][C@@H]2O[C@H](CO)[C@@H](O)[C@H](O)[C@H]2O)ccc1S(N)(=O)=O
[1]
  Ki: > 10000 nM
[3]
  Ki: > 10000 nM
[4]
  Ki: 4010 nM
[5]
  Ki: 2560 nM
[6]
  Ki: 2300 nM
[7]
  Ki: 7680 nM
[8]
  Ki: > 10000 nM

## CC(=O)OC[C@H]1O[C@@H]([Se]c2ccc(NC(=O)c3ccc(Cl)c(S(N)(=O)=O)c3)cc2)[C@H](OC(C)=O)[C@@H](OC(C)=O)[C@@H]1OC(C)=O
[1]
  Ki: 40.9 nM
[3]
  Ki: 87.3 nM
[4]
  Ki: 214 nM
[5]
  Ki: > 10000 nM
[6]
  Ki: 348 nM
[7]
  Ki: > 10000 nM
[8]
  Ki: 1570 nM

## NS(=O)(=O)c1ccc(C(=O)Nc2ccc([Se][C@@H]3O[C@H](CO)[C@@H](O)[C@H](O)[C@H]3O)cc2)cc1
[1]
  Ki: 3 nM
[3]
  Ki: 0.9 nM
[4]
  Ki: 6.1 nM
[5]
  Ki: 7.2 nM
[6]
  Ki: 45.1 nM
[7]
  Ki: 46.4 nM
[8]
  Ki: 8.9 nM

## NS(=O)(=O)c1cc(C(=O)Nc2ccc([Se][C@@H]3O[C@H](CO)[C@H](O)[C@H](O)[C@H]3O)cc2)ccc1Cl
[1]
  Ki: 21.9 nM
[3]
  Ki: 29.7 nM
[4]
  Ki: 14.8 nM
[5]
  Ki: 88.7 nM
[6]
  Ki: 215 nM
[7]
  Ki: 637 nM
[8]
  Ki: 77.7 nM

## CC(=O)O[C@H]1[C@@H](OC(C)=O)[C@@H](CO)O[C@@H]([Se]c2ccc(S(N)(=O)=O)cc2)[C@@H]1OC(C)=O
[1]
  Ki: 2.6 nM
[3]
  Ki: 0.8 nM
[4]
  Ki: 17.2 nM
[5]
  Ki: 42.3 nM
[6]
  Ki: 96.8 nM
[7]
  Ki: 86.2 nM
[8]
  Ki: 146 nM

## CC(=O)OC[C@H]1O[C@@H]([Se]c2ccc(S(N)(=O)=O)c(N)c2)[C@H](OC(C)=O)[C@@H](OC(C)=O)[C@@H]1OC(C)=O
[1]
  Ki: > 10000 nM
[3]
  Ki: > 10000 nM
[4]
  Ki: 6290 nM
[5]
  Ki: > 10000 nM
[6]
  Ki: 2540 nM
[7]
  Ki: > 10000 nM
[8]
  Ki: > 10000 nM

## CC(=O)OC[C@H]1O[C@@H]([Se]c2ccc(S(N)(=O)=O)cc2)[C@H](OC(C)=O)[C@@H](OC(C)=O)[C@@H]1OC(C)=O
[1]
  Ki: 707 nM
[3]
  Ki: 14.6 nM
[9]
  mortality: 20%
[4]
  Ki: 41.4 nM
[5]
  Ki: 9440 nM
[6]
  Ki: 596 nM
[7]
  Ki: 80.3 nM
[8]
  Ki: 4120 nM

## CC(=O)OC[C@H]1O[C@@H]([Se]c2ccc(NC(=S)Nc3ccc(S(N)(=O)=O)cc3)cc2)[C@H](OC(C)=O)[C@@H](OC(C)=O)[C@@H]1OC(C)=O
[1]
  Ki: 8.9 nM
[3]
  Ki: 1.8 nM
[4]
  Ki: 6.3 nM
[5]
  Ki: 55.8 nM
[6]
  Ki: 254 nM
[7]
  Ki: 53.1 nM
[8]
  Ki: 555 nM

## NS(=O)(=O)c1ccc(S(=O)(=O)[C@@H]2O[C@H](CO)[C@@H](O)[C@H](O)[C@H]2O)cc1
[1]
  Ki: 4.2 nM
[3]
  Ki: 2.2 nM

## CC(=O)OC[C@H]1O[C@@H]([Se]c2ccc(NC(=S)Nc3ccc(S(N)(=O)=O)cc3)cc2)[C@H](OC(C)=O)[C@@H](OC(C)=O)[C@H]1OC(C)=O
[1]
  Ki: 4.7 nM
[3]
  Ki: 2 nM
[4]
  Ki: 6.6 nM
[5]
  Ki: 34.2 nM
[6]
  Ki: 482 nM
[7]
  Ki: 48.1 nM
[8]
  Ki: 362 nM

## CC(=O)OC[C@H]1O[C@@H]([Se]c2ccc(NC(=O)c3ccc(S(N)(=O)=O)cc3)cc2)[C@H](OC(C)=O)[C@@H](OC(C)=O)[C@@H]1OC(C)=O
[1]
  Ki: 8.7 nM
[3]
  Ki: 2.8 nM
[4]
  Ki: 5.1 nM
[5]
  Ki: 9.4 nM
[6]
  Ki: 90.6 nM
[7]
  Ki: 85.2 nM
[8]
  Ki: 378 nM

## NS(=O)(=O)c1ccc([Se][C@@H]2O[C@H](CO)[C@@H](O)[C@H](O)[C@H]2O)cc1
[1]
  Ki: 87.3 nM
[3]
  Ki: 263 nM
[4]
  Ki: 13.8 nM
[5]
  Ki: 589 nM
[6]
  Ki: 325 nM
[7]
  Ki: 541 nM
[8]
  Ki: 647 nM

## CC(=O)OC[C@H]1O[C@@H]([Se]c2ccc(NC(=O)c3ccc(S(N)(=O)=O)cc3)cc2)[C@H](OC(C)=O)[C@@H](OC(C)=O)[C@H]1OC(C)=O
[1]
  Ki: 4 nM
[3]
  Ki: 0.7 nM
[4]
  Ki: 4 nM
[5]
  Ki: 5.6 nM
[6]
  Ki: 57.4 nM
[7]
  Ki: 51.4 nM
[8]
  Ki: 30.8 nM

## NS(=O)(=O)c1ccc([Se][C@@H]2O[C@H](CO)[C@H](O)[C@H](O)[C@H]2O)cc1
[1]
  Ki: 8.7 nM
[3]
  Ki: 30.3 nM
[4]
  Ki: 53.7 nM
[5]
  Ki: 82.4 nM
[6]
  Ki: 427 nM
[7]
  Ki: 647 nM
[8]
  Ki: 580 nM

## NS(=O)(=O)c1ccc(NC(=S)Nc2ccc([Se][C@@H]3O[C@H](CO)C(O)[C@H](O)[C@H]3O)cc2)cc1 (single isomer, unassigned; 16b)
[1]
  Ki: 6.2 nM
[3]
  Ki: 0.9 nM
[4]
  Ki: 4.5 nM
[5]
  Ki: 9.1 nM
[6]
  Ki: 358 nM
[7]
  Ki: 41.5 nM
[8]
  Ki: 77.7 nM

## CC(=O)OC[C@H]1O[C@@H]([Se]c2ccc(S(N)(=O)=O)c(N)c2)[C@H](OC(C)=O)[C@@H](OC(C)=O)[C@H]1OC(C)=O
[1]
  Ki: 406 nM
[3]
  Ki: > 10000 nM
[4]
  Ki: 6320 nM
[5]
  Ki: > 10000 nM
[6]
  Ki: 6570 nM
[7]
  Ki: 9600 nM
[8]
  Ki: > 10000 nM

## CC(=O)O[C@H]1[C@@H](OC(C)=O)[C@@H](CO)O[C@@H]([Se]c2ccc(S(N)(=O)=O)c(N)c2)[C@@H]1OC(C)=O
[1]
  Ki: 172 nM
[3]
  Ki: > 10000 nM
[4]
  Ki: 6660 nM
[5]
  Ki: > 10000 nM
[6]
  Ki: 236 nM
[7]
  Ki: 6820 nM
[8]
  Ki: 7280 nM
